Laboratory results as given in patent US20260356830A1, “COMPOUNDS FOR MODULATING RET PROTEIN” (Bristol-Myers Squibb Company, priority 2022, published 2026).

Target: T1, CCDC6-RET (Homo sapiens, UniProt P07949+Q16204+Q96SW2)
T1 construct: CCDC6 (natural N-terminal fusion partner, UniProt Q16204); endogenous in cells; host or cells: TPC-1 (parental, papillary thyroid carcinoma)
Assay: Cellular RET degradation, AlphaLISA, TPC-1 cell line
Type: cell-based
Details: for Dmax: TPC1, human, 24 h, read-out: Cell Density TPC-1/CCDC6-RET Ymax %; for DC50: read-out: Cell Density TPC-1/CCDC6-RET DC50, half-maximal degradation concentration, TPC-1 (CCDC6-RET), 24 hrs
Method: Cellular RET degradation compound potency was determined using the bead-based luminescent amplification assay-AlphaLISA Surefire Ultra Detection Kit (Perkin-Elmer). The CCDC6-RET fusion expressing papillary thyroid carcinoma (TPC-1) cell line was selected for screening of potential degraders: Parental (TPC-1/CCDC6-RET). Cells were plated in 384 well culture plates (Greiner Bio-One) at 10,000 cells/well in 50 ul/well DMEM (Fisher Scientific) with 2% FBS serum (Gibco). […] Low normalization wells were media only and high normalization wells were cells treated with DMSO only. Treated cell plates were placed in an incubator at 37 °C and 5% CO2 for 24 hrs. At 24 hrs, cell media was removed by a FELIX automated liquid hander (Analytik Jena) and 25 ul of cell lysis buffer (provided in AlphaLisa kit) was added to each well. […] cell lysate were transferred into a 384-well microplate (Perkin Elmer) before addition of 2.5 ul AlphaLISA Acceptor Bead mix. The plates were sealed and kept at room temperature for 1 hr before addition of donor bead mixture. Donor bead addition was performed in the dark and incubated for >1 hr before AlphaLISA luminescence was measured on an Envision plate reader with an Alphascreen aperture at RT (excitation 680 nm, emission 615 nm). RET protein abundance (and therefore degradation) directly corresponds to luminescence intensity.
Intensities were normalized relative to the average values from 16 wells containing media alone (blank-low) and 16 wells containing cells +DMSO (high). % Degradation for each well was determined using the standard equation, where
DC50 (IC50) values for each compound tested are calculated by analyzing plots of % degradation versus compound concentration, and fitting to the standard 4-parameter logistic curve where,
DC50 values are calculated according to the relationship,
Compound replicates were performed in independent assays. Maximum degradation (YMax) was defined as the maximal % degradation value from the 4-parameter logistic equation, as previously described.

T1 sequence (Q16204+P07949 fused): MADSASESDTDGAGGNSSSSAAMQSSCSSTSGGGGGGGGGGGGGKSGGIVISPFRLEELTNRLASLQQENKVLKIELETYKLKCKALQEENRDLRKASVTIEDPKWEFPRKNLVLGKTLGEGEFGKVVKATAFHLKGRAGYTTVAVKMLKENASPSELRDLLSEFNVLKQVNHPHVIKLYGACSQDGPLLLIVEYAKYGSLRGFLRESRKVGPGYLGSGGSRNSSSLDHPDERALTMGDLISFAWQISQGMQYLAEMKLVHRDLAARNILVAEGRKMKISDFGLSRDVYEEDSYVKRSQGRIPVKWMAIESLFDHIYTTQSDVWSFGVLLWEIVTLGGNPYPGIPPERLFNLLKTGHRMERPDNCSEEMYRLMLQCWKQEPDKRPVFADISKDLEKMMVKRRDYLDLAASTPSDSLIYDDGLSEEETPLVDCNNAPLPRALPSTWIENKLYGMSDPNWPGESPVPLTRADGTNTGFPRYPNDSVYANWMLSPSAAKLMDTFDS
T1 sequence (Q96SW2 whole entry, the tested form may be a part): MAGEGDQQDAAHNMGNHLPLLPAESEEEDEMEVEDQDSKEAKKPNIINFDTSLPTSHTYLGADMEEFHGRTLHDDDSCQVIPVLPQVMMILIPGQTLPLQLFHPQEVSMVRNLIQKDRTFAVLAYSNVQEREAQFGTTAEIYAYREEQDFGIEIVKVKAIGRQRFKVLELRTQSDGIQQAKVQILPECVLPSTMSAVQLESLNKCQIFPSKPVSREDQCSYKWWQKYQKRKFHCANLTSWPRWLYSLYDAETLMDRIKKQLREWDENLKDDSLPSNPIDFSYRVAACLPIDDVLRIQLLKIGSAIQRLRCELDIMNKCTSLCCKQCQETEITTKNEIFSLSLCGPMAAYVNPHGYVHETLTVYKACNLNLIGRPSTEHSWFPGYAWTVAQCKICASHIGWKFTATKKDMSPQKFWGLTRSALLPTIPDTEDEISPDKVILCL
T1 sequence (Q16531 whole entry partner, the tested form may be a part): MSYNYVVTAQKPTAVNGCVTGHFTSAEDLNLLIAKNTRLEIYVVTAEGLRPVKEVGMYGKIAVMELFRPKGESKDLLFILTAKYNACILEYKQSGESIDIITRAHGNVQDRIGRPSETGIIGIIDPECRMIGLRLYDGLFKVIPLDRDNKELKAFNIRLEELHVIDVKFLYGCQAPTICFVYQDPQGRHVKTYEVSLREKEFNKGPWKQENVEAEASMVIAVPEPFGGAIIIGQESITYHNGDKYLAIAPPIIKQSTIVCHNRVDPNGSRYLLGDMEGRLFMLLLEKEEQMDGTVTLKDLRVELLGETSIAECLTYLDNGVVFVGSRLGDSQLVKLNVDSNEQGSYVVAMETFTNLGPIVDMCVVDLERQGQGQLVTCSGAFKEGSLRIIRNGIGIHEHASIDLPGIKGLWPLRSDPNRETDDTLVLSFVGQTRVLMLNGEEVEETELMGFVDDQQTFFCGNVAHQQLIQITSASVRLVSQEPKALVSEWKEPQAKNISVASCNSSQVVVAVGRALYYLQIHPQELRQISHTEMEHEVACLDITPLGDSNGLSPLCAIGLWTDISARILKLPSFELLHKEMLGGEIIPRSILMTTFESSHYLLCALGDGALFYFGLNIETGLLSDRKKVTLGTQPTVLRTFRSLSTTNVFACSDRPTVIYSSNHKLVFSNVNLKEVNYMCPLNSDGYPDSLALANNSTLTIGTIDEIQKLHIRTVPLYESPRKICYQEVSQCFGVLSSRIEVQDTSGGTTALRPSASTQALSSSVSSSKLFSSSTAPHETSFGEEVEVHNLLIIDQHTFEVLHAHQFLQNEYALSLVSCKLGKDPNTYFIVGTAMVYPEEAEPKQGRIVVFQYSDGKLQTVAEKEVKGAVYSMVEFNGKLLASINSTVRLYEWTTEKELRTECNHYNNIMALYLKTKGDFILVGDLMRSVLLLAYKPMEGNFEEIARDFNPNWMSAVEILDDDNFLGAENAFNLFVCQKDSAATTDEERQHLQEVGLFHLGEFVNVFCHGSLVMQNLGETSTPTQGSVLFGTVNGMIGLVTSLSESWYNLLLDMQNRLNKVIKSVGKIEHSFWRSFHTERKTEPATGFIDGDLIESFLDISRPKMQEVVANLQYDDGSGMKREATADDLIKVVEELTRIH

Structure (SMILES) | Dmax | DC50
CCOc1cc(-c2ccc(N3CCC(CN4CCN(C(=O)CCCCCCCCNc5ccc6c(N7CCC(=O)NC7=O)nn(C)c6c5)CC4)(NC(=O)c4cc(F)ccc4F)CC3)nc2)c2c(C#N)cnn2c1 [Example 24, N-[1-(5-{3-cyano-6-ethoxypyrazolo[1,5-a]pyridin-4-yl}pyridin-2-yl)-4-{[4-(9-{[3-(2,4-dioxo-1,3-diazinan-1-yl)-1-methyl-1H-indazol-6-yl]amino}nonanoyl)piperazin-1-yl]methyl}piperidin-4-yl]-2,5-difluorobenzamide] | 60 to 90% | 10 to 100 nM
CCOc1cc(-c2ccc(N3CCC(CN4CCN(C(=O)CCCCCCCCNc5ccc6c(C7CCC(=O)NC7=O)nn(C)c6c5)CC4)(NC(=O)c4cc(F)ccc4F)CC3)nc2)c2c(C#N)cnn2c1 (stereo not shown) [Example 25, N-[1-(5-{3-cyano-6-ethoxypyrazolo[1,5-a]pyridin-4-yl}pyridin-2-yl)-4-{[4-(9-{[3-(2,6-dioxopiperidin-3-yl)-1-methyl-1H-indazol-6-yl]amino}nonanoyl)piperazin-1-yl]methyl}piperidin-4-yl]-2,5-difluorobenzamide] | > 90% | 2 to 10 nM
CCOc1cc(-c2ccc(N3CCC(CN4CCN(C(=O)CCCCNC(=O)COc5cccc6c5CN(C5CCC(=O)NC5=O)C6=O)CC4)(NC(=O)c4cc(F)ccc4F)CC3)nc2)c2c(C#N)cnn2c1 (stereo not shown) [Example 26, N-[1-(5-{3-cyano-6-ethoxypyrazolo[1,5-a]pyridin-4-yl}pyridin-2-yl)-4-({4-[5-(2-{[2-(2,6-dioxopiperidin-3-yl)-1-oxo-2,3-dihydro-1H-isoindol-4-yl]oxy}acetamido)pentanoyl]piperazin-1-yl}methyl)piperidin-4-yl]-2,5-difluorobenzamide] | > 90% | 2 to 10 nM
CCOc1cc(-c2ccc(N3CCC(CN4CCN(C(=O)CCCCCCNC(=O)COc5cccc6c5CN(C5CCC(=O)NC5=O)C6=O)CC4)(NC(=O)c4cc(F)ccc4F)CC3)nc2)c2c(C#N)cnn2c1 (stereo not shown) [Example 27, N-[1-(5-{3-cyano-6-ethoxypyrazolo[1,5-a]pyridin-4-yl}pyridin-2-yl)-4-({4-[7-(2-{[2-(2,6-dioxopiperidin-3-yl)-1-oxo-2,3-dihydro-1H-isoindol-4-yl]oxy}acetamido)heptanoyl]piperazin-1-yl}methyl)piperidin-4-yl]-2,5-difluorobenzamide] | 60 to 90% | 2 to 10 nM
CCOc1cc(-c2ccc(N3CCC(CN4CCN(C(=O)CCCCCCCCCCNC(=O)COc5cccc6c5CN(C5CCC(=O)NC5=O)C6=O)CC4)(NC(=O)c4cc(F)ccc4F)CC3)nc2)c2c(C#N)cnn2c1 (stereo not shown) [Example 28, N-[1-(5-{3-cyano-6-ethoxypyrazolo[1,5-a]pyridin-4-yl}pyridin-2-yl)-4-({4-[11-(2-{[2-(2,6-dioxopiperidin-3-yl)-1-oxo-2,3-dihydro-1H-isoindol-4-yl]oxy}acetamido)undecanoyl]piperazin-1-yl}methyl)piperidin-4-yl]-2,5-difluorobenzamide] | 60 to 90% | 10 to 100 nM
CCOc1cc(-c2ccc(N3CCC(CN4CCN(C(=O)CCCCCCCCCCCCNC(=O)COc5cccc6c5CN(C5CCC(=O)NC5=O)C6=O)CC4)(NC(=O)c4cc(F)ccc4F)CC3)nc2)c2c(C#N)cnn2c1 (stereo not shown) [Example 29, N-[1-(5-{3-cyano-6-ethoxypyrazolo[1,5-a]pyridin-4-yl}pyridin-2-yl)-4-({4-[13-(2-{[2-(2,6-dioxopiperidin-3-yl)-1-oxo-2,3-dihydro-1H-isoindol-4-yl]oxy}acetamido)tridecanoyl]piperazin-1-yl}methyl)piperidin-4-yl]-2,5-difluorobenzamide] | > 90% | 10 to 100 nM
CCOc1cc(-c2ccc(N3CCC(CN4CCN(C(=O)CCCCCCCCCCCCCCNC(=O)COc5cccc6c5CN(C5CCC(=O)NC5=O)C6=O)CC4)(NC(=O)c4cc(F)ccc4F)CC3)nc2)c2c(C#N)cnn2c1 (stereo not shown) [Example 30, N-[1-(5-{3-cyano-6-ethoxypyrazolo[1,5-a]pyridin-4-yl}pyridin-2-yl)-4-({4-[15-(2-{[2-(2,6-dioxopiperidin-3-yl)-1-oxo-2,3-dihydro-1H-isoindol-4-yl]oxy}acetamido)pentadecanoyl]piperazin-1-yl}methyl)piperidin-4-yl]-2,5-difluorobenzamide] | 60 to 90% | 100 to 2000 nM
CCOc1cc(-c2ccc(N3CCC(COCC(=O)NCCCCN4CCN(c5ccc6c(c5)CN(C5CCC(=O)NC5=O)C6=O)CC4)(NC(=O)c4cc(F)ccc4F)CC3)nc2)c2c(C#N)cnn2c1 (stereo not shown) [Example 31, N-[1-[5-(3-cyano-6-ethoxy-pyrazolo[1,5-a]pyridin-4-yl)-2-pyridyl]-4-[[2-[4-[4-[2-(2,6-dioxo-3-piperidyl)-1-oxo-isoindolin-5-yl]piperazin-1-yl]butylamino]-2-oxo-ethoxy]methyl]-4-piperidyl]-2,5-difluoro-benzamide] | 60 to 90% | 2 to 10 nM
CCOc1cc(-c2ccc(N3CCC(COCCN4CCN(C(=O)CCN5CCC(c6ccc7c(c6)C(=O)N(C6CCC(=O)NC6=O)C7)CC5)CC4)(NC(=O)c4cc(F)ccc4F)CC3)nc2)c2c(C#N)cnn2c1 (stereo not shown) [Example 32, N-[1-[5-(3-cyano-6-ethoxy-pyrazolo[1,5-a]pyridin-4-yl)-2-pyridyl]-4-[2-[4-[3-[4-[2-(2,6-dioxo-3-piperidyl)-3-oxo-isoindolin-5-yl]-1-piperidyl]propanoyl]piperazin-1-yl]ethoxymethyl]-4-piperidyl]-2,5-difluoro-benzamide] | 60 to 90% | 10 to 100 nM
CCOc1cc(-c2ccc(N3CCC(COCCN4CCN(C(=O)CCN5CCN(c6ccc7c(c6)C(=O)N(C6CCC(=O)NC6=O)C7)CC5)CC4)(NC(=O)c4cc(F)ccc4F)CC3)nc2)c2c(C#N)cnn2c1 (stereo not shown) [Example 33, N-[1-[5-(3-cyano-6-ethoxy-pyrazolo[1,5-a]pyridin-4-yl)-2-pyridyl]-4-[2-[4-[3-[4-[2-(2,6-dioxo-3-piperidyl)-3-oxo-isoindolin-5-yl]piperazin-1-yl]propanoyl]piperazin-1-yl]ethoxymethyl]-4-piperidyl]-2,5-difluoro-benzamide] | 60 to 90% | 2 to 10 nM
CCOc1cc(-c2ccc(N3CCC(COCCN4CCN(C(=O)CCN5CCN(c6ccc7c(c6)CN(C6CCC(=O)NC6=O)C7=O)CC5)CC4)(NC(=O)c4cc(F)ccc4F)CC3)nc2)c2c(C#N)cnn2c1 (stereo not shown) [Example 34, N-[1-[5-(3-cyano-6-ethoxy-pyrazolo[1,5-a]pyridin-4-yl)-2-pyridyl]-4-[2-[4-[3-[4-[2-(2,6-dioxo-3-piperidyl)-1-oxo-isoindolin-5-yl]piperazin-1-yl]propanoyl]piperazin-1-yl]ethoxymethyl]-4-piperidyl]-2,5-difluoro-benzamide] | > 90% | 10 to 100 nM
CCOc1cc(-c2ccc(N3CCC(COCCN4CCN(C(=O)CCCCN5CCN(c6ccc7c(c6)CN(C6CCC(=O)NC6=O)C7=O)CC5)CC4)(NC(=O)c4cc(F)ccc4F)CC3)nc2)c2c(C#N)cnn2c1 (stereo not shown) [Example 35, N-[1-[5-(3-cyano-6-ethoxy-pyrazolo[1,5-a]pyridin-4-yl)-2-pyridyl]-4-[2-[4-[5-[4-[2-(2,6-dioxo-3-piperidyl)-1-oxo-isoindolin-5-yl]piperazin-1-yl]pentanoyl]piperazin-1-yl]ethoxymethyl]-4-piperidyl]-2,5-difluoro-benzamide] | > 90% | 10 to 100 nM
CCOc1cc(-c2ccc(N3CCC(COCC(=O)NCCCCCCN4CCN(c5ccc6c(c5)CN(C5CCC(=O)NC5=O)C6=O)CC4)(NC(=O)c4cc(F)ccc4F)CC3)nc2)c2c(C#N)cnn2c1 (stereo not shown) [Example 38, N-[1-[5-(3-cyano-6-ethoxy-pyrazolo[1,5-a]pyridin-4-yl)-2-pyridyl]-4-[[2-[6-[4-[2-(2,6-dioxo-3-piperidyl)-1-oxo-isoindolin-5-yl]piperazin-1-yl]hexylamino]-2-oxo-ethoxy]methyl]-4-piperidyl]-2,5-difluoro-benzamide] | > 90% | < 2 nM
CCOc1cc(-c2ccc(N3CCC(CN4CCN(C(=O)CCN5CCN(c6ccc7c(N8CCC(=O)NC8=O)nn(C)c7c6)CC5)CC4)(NC(=O)c4cc(F)ccc4F)CC3)nc2)c2c(C#N)cnn2c1 [Example 39, N-(1-(5-(3-cyano-6-ethoxypyrazolo[1,5-a]pyridin-4-yl)pyridin-2-yl)-4-((4-(3-(4-(3-(2,4-dioxotetrahydropyrimidin-1(2H)-yl)-1-methyl-1H-indazol-6-yl)piperazin-1-yl)propanoyl)piperazin-1-yl)methyl)piperidin-4-yl)-2,5-difluorobenzamide] | 60 to 90% | < 2 nM
